Measured values from EPA's ToxValDB 9.5 (doi:10.2903/j.efsa.2009.262r).
Converted amounts (≈) assume the structure as drawn.

Columns and labels:
Apis mellifera = settings: acute, mortality
Bibionidae = settings: chronic/long-term; duration: 28 days
Daphnia magna = settings: chronic/long-term; duration: 21 days
Oryctolagus sp. = settings: reproduction developmental; reproduction
Rattus norvegicus = settings: for NOAEL: clinical chemistry
Aphidius rhopalosiphi = assay: LR50; higher = less toxic; settings: not reported; mortality
Typhlodromus pyri = assay: LR50; higher = less toxic; settings: not reported; mortality

CCOP(=O)(SC(C)CC)SC(C)CC (configuration not stated) [Cadusafos]
LD50 (Apis mellifera; dermal): 1.8 µg/piece
LD50 (Apis mellifera; oral, unspecified): 2.07 µg/piece
NOEC (Bibionidae): 32 µg/kg
LC50 (Colinus virginianus; acute, oral, diet, mortality): 10.8 mg/kg-day
LD50 (Colinus virginianus; acute, oral, mortality): 16.1 mg/kg-day
NOEL (Colinus virginianus; reproduction developmental): ≥ 1.1 mg/kg-day
NOEC (Daphnia magna): 0.231 µg/L
LC50 (Oncorhynchus mykiss; acute, duration: 96 hours, mortality): 0.13 µg/mL (≈ 0.481 µM)
NOEC (Oncorhynchus mykiss; chronic/long-term, duration: 95 days): 5.22 µg/L
NOAEL (Oryctolagus sp.): 0.3 mg/kg-day
LD50 (Rattus norvegicus; acute, oral, mortality): 37.1 mg/kg
NOAEL (Rattus norvegicus; chronic, duration: 2 years, F): 0.045 mg/kg-day
NOAEL (Rattus norvegicus; subchronic, duration: 90 days, oral): 0.067 mg/kg-day
LC50 (Tagia sp.; acute, mortality): 7.2 mg/kg
NOEC (Tagia sp.; chronic/long-term): 1.8 mg/kg
LR50 (Aphidius rhopalosiphi): 3.75 g/ha
LR50 (Typhlodromus pyri): 44.4 g/ha
